Experimental data: ChEMBL document CHEMBL3621085, “Tetrazole regioisomers in the development of nitro group-containing antitubercular agents” (Medchemcomm, 2015)
Converted amounts (≈) assume the structure as drawn.

Tests used:
Mycobacterium avium [1] = assay: Antimycobacterial activity against Mycobacterium avium My 330/88 after 14 days by micromethod; format: functional; settings: My 330/88, 336 h
Mycobacterium kansasii [2] = assay: Antimycobacterial activity against Mycobacterium kansasii My 235/80 after 7 days by micromethod; format: functional; settings: My 235/80, 168 h
Mycobacterium avium [3] = assay: Antimycobacterial activity against Mycobacterium avium My 330/88 after 21 days by micromethod; format: functional; settings: My 330/88, 504 h
Mycobacterium kansasii [4] = assay: Antimycobacterial activity against Mycobacterium kansasii 6509/96 after 21 days by micromethod; format: functional; settings: 6509/96, 504 h
Mycobacterium kansasii [5] = assay: Antimycobacterial activity against Mycobacterium kansasii 6509/96 after 14 days by micromethod; format: functional; settings: 6509/96, 336 h
Mycobacterium kansasii [6] = assay: Antimycobacterial activity against Mycobacterium kansasii My 235/80 after 21 days by micromethod; format: functional; settings: My 235/80, 504 h
[7] = test system: Mycobacterium tuberculosis; assay: Antimycobacterial activity against Mycobacterium tuberculosis My 331/88 after 21 days by micromethod; format: functional; settings: My 331/88, 504 h
[8] = test system: Mycobacterium tuberculosis; assay: Antimycobacterial activity against Mycobacterium tuberculosis My 331/88 after 14 days by micromethod; format: functional; settings: My 331/88, 336 h
Mycobacterium kansasii [9] = assay: Antimycobacterial activity against Mycobacterium kansasii 6509/96 after 7 days by micromethod; format: functional; settings: 6509/96, 168 h
Mycobacterium kansasii [10] = assay: Antimycobacterial activity against Mycobacterium kansasii My 235/80 after 14 days by micromethod; format: functional; settings: My 235/80, 336 h
[11] = Cytotoxicity against CHOK1 cells assessed as viability after 24 hrs by MTT assay; format: cell-based; settings: Cricetulus griseus, CHO-K1, 24 h

| SMILES | MIC (Mycobacterium avium [1]) | MIC (Mycobacterium kansasii [2]) | MIC (Mycobacterium avium [3]) | MIC (Mycobacterium kansasii [4]) | MIC (Mycobacterium kansasii [5]) | MIC (Mycobacterium kansasii [6]) | MIC [7] | MIC [8] | MIC (Mycobacterium kansasii [9]) | MIC (Mycobacterium kansasii [10]) | IC50 [11] |
| --- | --- | --- | --- | --- | --- | --- | --- | --- | --- | --- | --- |
| Cn1nnc(SCc2ccc([N+](=O)[O-])cc2[N+](=O)[O-])n1 | 125 µM (≈ 37 µg/mL) | 32 µM (≈ 9.48 µg/mL) | 125 µM (≈ 37 µg/mL) | 125 µM (≈ 37 µg/mL) | 125 µM (≈ 37 µg/mL) | 125 µM (≈ 37 µg/mL) | 8 µM (≈ 2.37 µg/mL) | 4 µM (≈ 1.19 µg/mL) | 32 µM (≈ 9.48 µg/mL) | 125 µM (≈ 37 µg/mL) | – |
| O=[N+]([O-])c1ccc(CSc2nnnn2Cc2ccccc2)c([N+](=O)[O-])c1 | 250 µM (≈ 93.1 µg/mL) | 8 µM (≈ 2.98 µg/mL) | 250 µM (≈ 93.1 µg/mL) | 62 µM (≈ 23.1 µg/mL) | 32 µM (≈ 11.9 µg/mL) | 62 µM (≈ 23.1 µg/mL) | 8 µM (≈ 2.98 µg/mL) | 8 µM (≈ 2.98 µg/mL) | 16 µM (≈ 5.96 µg/mL) | 32 µM (≈ 11.9 µg/mL) | – |
| Cn1nnc([Se]Cc2cc([N+](=O)[O-])cc([N+](=O)[O-])c2)n1 | 250 µM (≈ 85.8 µg/mL) | 2 µM (≈ 0.686 µg/mL) | 250 µM (≈ 85.8 µg/mL) | 4 µM (≈ 1.37 µg/mL) | 4 µM (≈ 1.37 µg/mL) | 8 µM (≈ 2.75 µg/mL) | 2 µM (≈ 0.686 µg/mL) | 1 µM (≈ 0.343 µg/mL) | 2 µM (≈ 0.686 µg/mL) | 4 µM (≈ 1.37 µg/mL) | – |
| Cn1nnnc1SCc1ccc([N+](=O)[O-])cc1[N+](=O)[O-] | 125 µM (≈ 37 µg/mL) | 125 µM (≈ 37 µg/mL) | 500 µM (≈ 148 µg/mL) | 500 µM (≈ 148 µg/mL) | 500 µM (≈ 148 µg/mL) | 500 µM (≈ 148 µg/mL) | 16 µM (≈ 4.74 µg/mL) | 16 µM (≈ 4.74 µg/mL) | 125 µM (≈ 37 µg/mL) | 500 µM (≈ 148 µg/mL) | – |
| Cn1nnnc1[Se]Cc1ccc([N+](=O)[O-])cc1[N+](=O)[O-] | 250 µM (≈ 85.8 µg/mL) | 62 µM (≈ 21.3 µg/mL) | 250 µM (≈ 85.8 µg/mL) | 250 µM (≈ 85.8 µg/mL) | 125 µM (≈ 42.9 µg/mL) | 125 µM (≈ 42.9 µg/mL) | 32 µM (≈ 11 µg/mL) | 32 µM (≈ 11 µg/mL) | 62 µM (≈ 21.3 µg/mL) | 125 µM (≈ 42.9 µg/mL) | – |
| O=[N+]([O-])c1ccc(C[Se]c2nnn(Cc3ccc([N+](=O)[O-])cc3)n2)cc1 | 250 µM (≈ 105 µg/mL) | 32 µM (≈ 13.4 µg/mL) | 250 µM (≈ 105 µg/mL) | 125 µM (≈ 52.4 µg/mL) | 125 µM (≈ 52.4 µg/mL) | 125 µM (≈ 52.4 µg/mL) | 62 µM (≈ 26 µg/mL) | 62 µM (≈ 26 µg/mL) | 62 µM (≈ 26 µg/mL) | 125 µM (≈ 52.4 µg/mL) | – |
| Cn1nnnc1SCc1cc([N+](=O)[O-])cc([N+](=O)[O-])c1 | 500 µM (≈ 148 µg/mL) | 4 µM (≈ 1.19 µg/mL) | 1000 µM (≈ 296 µg/mL) | 32 µM (≈ 9.48 µg/mL) | 32 µM (≈ 9.48 µg/mL) | 32 µM (≈ 9.48 µg/mL) | 8 µM (≈ 2.37 µg/mL) | 4 µM (≈ 1.19 µg/mL) | 16 µM (≈ 4.74 µg/mL) | 16 µM (≈ 4.74 µg/mL) | – |
| Cn1nnc([Se]Cc2ccc([N+](=O)[O-])cc2[N+](=O)[O-])n1 | 62 µM (≈ 21.3 µg/mL) | 32 µM (≈ 11 µg/mL) | 62 µM (≈ 21.3 µg/mL) | 125 µM (≈ 42.9 µg/mL) | 62 µM (≈ 21.3 µg/mL) | 125 µM (≈ 42.9 µg/mL) | 16 µM (≈ 5.49 µg/mL) | 16 µM (≈ 5.49 µg/mL) | 16 µM (≈ 5.49 µg/mL) | 125 µM (≈ 42.9 µg/mL) | – |
| COc1ccc(C[Se]c2nnnn2Cc2ccc([N+](=O)[O-])cc2[N+](=O)[O-])cc1 | 125 µM (≈ 56.2 µg/mL) | 16 µM (≈ 7.19 µg/mL) | 125 µM (≈ 56.2 µg/mL) | 32 µM (≈ 14.4 µg/mL) | 16 µM (≈ 7.19 µg/mL) | 62 µM (≈ 27.9 µg/mL) | 8 µM (≈ 3.59 µg/mL) | 4 µM (≈ 1.8 µg/mL) | 4 µM (≈ 1.8 µg/mL) | 32 µM (≈ 14.4 µg/mL) | – |
| O=[N+]([O-])c1ccc(Cn2nnnc2[Se]Cc2ccccc2)c([N+](=O)[O-])c1 | 16 µM (≈ 6.71 µg/mL) | 32 µM (≈ 13.4 µg/mL) | 32 µM (≈ 13.4 µg/mL) | 125 µM (≈ 52.4 µg/mL) | 62 µM (≈ 26 µg/mL) | 62 µM (≈ 26 µg/mL) | 2 µM (≈ 0.839 µg/mL) | 1 µM (≈ 0.419 µg/mL) | 16 µM (≈ 6.71 µg/mL) | 62 µM (≈ 26 µg/mL) | – |
| O=[N+]([O-])c1cc(Cn2nnnc2SCc2ccccc2)cc([N+](=O)[O-])c1 | 125 µM (≈ 46.5 µg/mL) | 32 µM (≈ 11.9 µg/mL) | 125 µM (≈ 46.5 µg/mL) | 32 µM (≈ 11.9 µg/mL) | 32 µM (≈ 11.9 µg/mL) | 62 µM (≈ 23.1 µg/mL) | 8 µM (≈ 2.98 µg/mL) | 8 µM (≈ 2.98 µg/mL) | 16 µM (≈ 5.96 µg/mL) | 62 µM (≈ 23.1 µg/mL) | 115 µM |
| O=[N+]([O-])c1ccc(CSc2nnnn2Cc2ccc([N+](=O)[O-])cc2)cc1 | 250 µM (≈ 93.1 µg/mL) | 250 µM (≈ 93.1 µg/mL) | 250 µM (≈ 93.1 µg/mL) | 250 µM (≈ 93.1 µg/mL) | 250 µM (≈ 93.1 µg/mL) | 250 µM (≈ 93.1 µg/mL) | 500 µM (≈ 186 µg/mL) | 500 µM (≈ 186 µg/mL) | 250 µM (≈ 93.1 µg/mL) | 250 µM (≈ 93.1 µg/mL) | – |
| O=[N+]([O-])c1cc(CSc2nnnn2Cc2ccc(Cl)c(Cl)c2)cc([N+](=O)[O-])c1 | 125 µM (≈ 55.2 µg/mL) | 2 µM (≈ 0.883 µg/mL) | 125 µM (≈ 55.2 µg/mL) | 8 µM (≈ 3.53 µg/mL) | 4 µM (≈ 1.77 µg/mL) | 4 µM (≈ 1.77 µg/mL) | 2 µM (≈ 0.883 µg/mL) | 2 µM (≈ 0.883 µg/mL) | 2 µM (≈ 0.883 µg/mL) | 4 µM (≈ 1.77 µg/mL) | 140 µM |
| O=[N+]([O-])c1ccc(C[Se]c2nnnn2Cc2ccc([N+](=O)[O-])cc2)cc1 | 250 µM (≈ 105 µg/mL) | 62 µM (≈ 26 µg/mL) | 250 µM (≈ 105 µg/mL) | 62 µM (≈ 26 µg/mL) | 62 µM (≈ 26 µg/mL) | 125 µM (≈ 52.4 µg/mL) | 125 µM (≈ 52.4 µg/mL) | 62 µM (≈ 26 µg/mL) | 32 µM (≈ 13.4 µg/mL) | 125 µM (≈ 52.4 µg/mL) | – |
